Assay results published in ChEMBL document CHEMBL1201862, “PubChem BioAssay data set” (2004).
“And” between values parts separate entries of the source, which are not always exact repeats. Identical values can stand only once.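 Cultured in 96-well plates, cells were exposed to test compound for 48 hours across five concentrations. Here, GI50 denotes the concentration required for 50% inhibition of growth.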 The source made the active and inactive calls. No stated cut-off is given here; in the data, active = GI50 up to about 1.1 µM and inactive = higher.

Tests used:
Assay in all cases: NCI tumour cell line growth inhibition, 48 h
[1] = system: 786-0
[2] = system: A498
[3] = system: A549
[4] = system: ACHN
[5] = system: CAKI-1
[6] = system: CCRF-CEM
[7] = system: COLO 205
[8] = system: DLD-1
[9] = system: DMS-273
[10] = system: EKVX
[11] = system: HCC 2998
[12] = system: HCT-116
[13] = system: HCT-15
[14] = system: HL-60
[15] = system: HOP-18
[16] = system: HOP-62
[17] = system: HOP-92
[18] = system: HT-29
[19] = system: IGROV-1
[20] = system: K562
[21] = system: KM-20L2
[22] = system: KM12
[23] = system: LOX IMVI
[24] = system: LXFL 529
[25] = system: M14
[26] = system: M19-MEL
[27] = system: MOLT-4
[28] = system: Malme-3M
[29] = system: NCI-H226
[30] = system: NCI-H23
[31] = system: NCI-H460
[32] = system: OVCAR-3
[33] = system: OVCAR-4
[34] = system: OVCAR-5
[35] = system: OVCAR-8
[36] = system: RPMI-8226
[37] = system: RXF 393
[38] = system: SF-268
[39] = system: SF-295
[40] = system: SK-MEL-28
[41] = system: SK-MEL-2
[42] = system: SK-MEL-5
[43] = system: SK-OV-3
[44] = system: SN12C
[45] = system: SNB-19
[46] = system: SNB-75
[47] = system: SW-620
[48] = system: U-251
[49] = system: UACC-62
[50] = system: UO-31
[51] = system: XF498
[52] = system: BT-549
[53] = system: DU-145
[54] = system: Hs-578T
[55] = system: MCF7
[56] = system: MDA-MB-231
[57] = system: MDA-MB-435
[58] = system: MDA-N
[59] = system: NCI-H522
[60] = system: NCI/ADR-RES
[61] = system: PC-3
[62] = system: SF-539
[63] = system: SNB-78
[64] = system: SR
[65] = system: T47D
[66] = system: TK-10
[67] = system: UACC-257
[68] = system: DMS-114

Structure (SMILES): O=C1c2ccccc2-c2c3c(cc4ccnc1c24)OCO3 [LIRIODENINE]
- GI50 [1]: 4.25 µM (inactive) and 7.69 µM (inactive)
- GI50 [2]: 3.48 µM (inactive)
- GI50 [3]: 3.48 µM (inactive) and 3.47 µM (inactive)
- GI50 [4]: 3.94 µM (inactive) and 4.32 µM (inactive)
- GI50 [5]: 3.63 µM (inactive) and 3.77 µM (inactive)
- GI50 [6]: 4.1 µM (inactive) and 2.7 µM (inactive)
- GI50 [7]: 4.79 µM (inactive) and 4.24 µM (inactive)
- GI50 [8]: 4.49 µM (inactive) and 4.05 µM (inactive)
- GI50 [9]: 3.44 µM (inactive) and 5.46 µM (inactive)
- GI50 [10]: 3.46 µM (inactive) and 5.15 µM (inactive)
- GI50 [11]: 4.51 µM (inactive)
- GI50 [12]: 3.29 µM (inactive) and 3.17 µM (inactive)
- GI50 [13]: 4.9 µM and 4.42 µM
- GI50 [14]: 3 µM (inactive)
- GI50 [15]: 24.9 µM (inactive)
- GI50 [16]: 3.89 µM (inactive)
- GI50 [17]: 8.69 µM (inactive) and 5.61 µM (inactive)
- GI50 [18]: 4.95 µM (inactive) and 4.06 µM (inactive)
- GI50 [19]: 5.97 µM (inactive) and 3.9 µM (inactive)
- GI50 [20]: 3.42 µM (inactive) and 4.29 µM (inactive)
- GI50 [21]: 7.14 µM (inactive) and 5.82 µM (inactive)
- GI50 [22]: 6.44 µM (inactive) and 6.5 µM (inactive)
- GI50 [23]: 3.77 µM (inactive) and 4.22 µM (inactive)
- GI50 [24]: 5.89 µM (inactive) and 6.52 µM (inactive)
- GI50 [25]: 7.53 µM (inactive) and 6.71 µM (inactive)
- GI50 [26]: 5.86 µM (inactive) and 3.75 µM (inactive)
- GI50 [27]: 3.38 µM (inactive) and 3.67 µM (inactive)
- GI50 [28]: 3.59 µM (inactive) and 3.03 µM (inactive)
- GI50 [29]: 4.69 µM (inactive) and 5.27 µM (inactive)
- GI50 [30]: 4.05 µM (inactive) and 5.4 µM (inactive)
- GI50 [31]: 3.59 µM (inactive) and 3.34 µM (inactive)
- GI50 [32]: 9.25 µM (inactive) and 10.5 µM (inactive)
- GI50 [33]: 5.07 µM (inactive) and 8.24 µM (inactive)
- GI50 [34]: 16.9 µM (inactive) and 11.5 µM (inactive)
- GI50 [35]: 4.04 µM (inactive) and 5.14 µM (inactive)
- GI50 [36]: 3.2 µM (inactive) and 3.48 µM (inactive)
- GI50 [37]: 5.55 µM (inactive) and 5.06 µM (inactive)
- GI50 [38]: 6.14 µM (inactive) and 6.03 µM (inactive)
- GI50 [39]: 6.12 µM (inactive) and 4.86 µM (inactive)
- GI50 [40]: 5.58 µM (inactive) and 5.27 µM (inactive)
- GI50 [41]: 4.19 µM (inactive) and 6 µM (inactive)
- GI50 [42]: 2.84 µM (inactive)
- GI50 [43]: 22.2 µM (inactive) and 17.9 µM (inactive)
- GI50 [44]: 4.98 µM (inactive) and 5.82 µM (inactive)
- GI50 [45]: 5.68 µM (inactive) and 8 µM (inactive)
- GI50 [46]: 4.18 µM (inactive) and 6 µM (inactive)
- GI50 [47]: 4.92 µM (inactive) and 3.82 µM (inactive)
- GI50 [48]: 6.32 µM (inactive) and 5.45 µM (inactive)
- GI50 [49]: 4.57 µM (inactive) and 2.77 µM (inactive)
- GI50 [50]: 4.94 µM (inactive) and 3.42 µM (inactive)
- GI50 [51]: 5.75 µM (inactive) and 4.69 µM (inactive)

Structure (SMILES): N=c1nc2n(cc1F)[C@@H]1O[C@H](CO)[C@@H](O)[C@@H]1O2
- GI50 [1]: 4.46 µM (inactive)
- GI50 [2]: 13.4 µM (inactive)
- GI50 [3]: 335 nM (active)
- GI50 [4]: 2.12 µM (inactive)
- GI50 [52]: > 100 µM (inactive)
- GI50 [5]: 3.45 µM (inactive)
- GI50 [6]: < 12.2 nM (active)
- GI50 [7]: 14 µM (inactive)
- GI50 [8]: 1.44 µM (inactive)
- GI50 [9]: 3.63 µM (inactive)
- GI50 [53]: 0.971 µM (active)
- GI50 [10]: > 100 µM (inactive)
- GI50 [11]: > 56 µM (inactive)
- GI50 [12]: 1.31 µM (inactive)
- GI50 [13]: > 90.2 µM
- GI50 [14]: 0.317 µM (active)
- GI50 [15]: 13.4 µM (inactive)
- GI50 [16]: 2.36 µM (inactive)
- GI50 [17]: 11.3 µM (inactive)
- GI50 [18]: 34.4 µM (inactive)
- GI50 [54]: > 100 µM (inactive)
- GI50 [19]: 47.4 µM (inactive)
- GI50 [20]: 4.33 µM (inactive)
- GI50 [21]: 2.99 µM (inactive)
- GI50 [22]: > 100 µM (inactive)
- GI50 [23]: 1.06 µM (active)
- GI50 [24]: > 26.5 µM (inactive)
- GI50 [25]: 1.45 µM (inactive)
- GI50 [55]: 1.14 µM (inactive)
- GI50 [56]: > 100 µM (inactive)
- GI50 [57]: 0.658 µM (active)
- GI50 [58]: > 100 µM (inactive)
- GI50 [27]: 33.6 nM (active)
- GI50 [28]: 9.42 µM (inactive)
- GI50 [29]: 17.3 µM (inactive)
- GI50 [30]: 2.29 µM (inactive)
- GI50 [31]: 286 nM (active)
- GI50 [59]: 4.18 µM (inactive)
- GI50 [60]: 9.59 µM (inactive)
- GI50 [32]: 9.1 µM (inactive)
- GI50 [33]: > 100 µM (inactive)
- GI50 [34]: > 100 µM (inactive)
- GI50 [35]: 1.04 µM (active)
- GI50 [61]: > 100 µM (inactive)
- GI50 [36]: 56.9 µM (inactive)
- GI50 [37]: > 40.7 µM (inactive)
- GI50 [38]: 4.22 µM (inactive)
- GI50 [39]: 49.9 µM (inactive)
- GI50 [62]: 53 µM (inactive)
- GI50 [40]: > 63.7 µM (inactive)
- GI50 [41]: > 100 µM (inactive)
- GI50 [42]: 35.4 µM (inactive)
- GI50 [43]: 8.55 µM (inactive)
- GI50 [44]: 14.4 µM (inactive)
- GI50 [45]: > 92.9 µM (inactive)
- GI50 [46]: > 70.6 µM (inactive)
- GI50 [63]: 62.2 µM (inactive)
- GI50 [64]: 0.424 µM (active)
- GI50 [47]: > 20.5 µM (inactive)
- GI50 [65]: 18.4 µM (inactive)
- GI50 [66]: > 75.5 µM (inactive)
- GI50 [48]: 24.8 µM (inactive)
- GI50 [67]: > 23.6 µM (inactive)
- GI50 [49]: > 92.5 µM (inactive)
- GI50 [50]: 24.6 µM (inactive)
- GI50 [51]: > 100 µM (inactive)

Structure (SMILES): O=NN(CCF)C(=O)NC1CC2CCC1C2 (stereo not given)
- GI50 [2]: > 100 µM (inactive)
- GI50 [3]: > 100000 nM (inactive)
- GI50 [5]: > 100 µM (inactive)
- GI50 [6]: 38300 nM (inactive)
- GI50 [7]: > 100 µM (inactive)
- GI50 [8]: > 87.7 µM (inactive)
- GI50 [68]: > 100 µM (inactive)
- GI50 [9]: > 100 µM (inactive)
- GI50 [10]: > 100 µM (inactive)
- GI50 [11]: > 100 µM (inactive)
- GI50 [12]: > 100 µM (inactive)
- GI50 [13]: > 74.3 µM
- GI50 [14]: 38.7 µM (inactive)
- GI50 [15]: > 100 µM (inactive)
- GI50 [16]: > 84.1 µM (inactive)
- GI50 [17]: > 100 µM (inactive)
- GI50 [18]: > 100 µM (inactive)
- GI50 [19]: > 72.9 µM (inactive)
- GI50 [20]: > 53 µM (inactive)
- GI50 [21]: > 100 µM (inactive)
- GI50 [22]: > 100 µM (inactive)
- GI50 [23]: 84.7 µM (inactive)
- GI50 [26]: > 100 µM (inactive)
- GI50 [55]: 98.9 µM (inactive)
- GI50 [27]: > 100000 nM (inactive)
- GI50 [28]: > 100 µM (inactive)
- GI50 [30]: > 100 µM (inactive)
- GI50 [31]: > 100000 nM (inactive)
- GI50 [59]: 73.6 µM (inactive)
- GI50 [60]: > 100 µM (inactive)
- GI50 [32]: > 100 µM (inactive)
- GI50 [33]: > 100 µM (inactive)
- GI50 [34]: > 100 µM (inactive)
- GI50 [35]: > 100 µM (inactive)
- GI50 [36]: > 54.3 µM (inactive)
- GI50 [37]: > 100 µM (inactive)
- GI50 [38]: > 100 µM (inactive)
- GI50 [39]: > 100 µM (inactive)
- GI50 [62]: > 100 µM (inactive)
- GI50 [40]: > 100 µM (inactive)
- GI50 [41]: > 100 µM (inactive)
- GI50 [42]: > 100 µM (inactive)
- GI50 [43]: > 100 µM (inactive)
- GI50 [44]: > 100 µM (inactive)
- GI50 [45]: > 100 µM (inactive)
- GI50 [46]: > 100 µM (inactive)
- GI50 [63]: > 100 µM (inactive)
- GI50 [47]: > 100 µM (inactive)
- GI50 [48]: > 100 µM (inactive)
- GI50 [67]: > 100 µM (inactive)
- GI50 [49]: 86.9 µM (inactive)
- GI50 [50]: > 100 µM (inactive)
- GI50 [51]: < 0.01 µM (active)
